Data taken from the NIST ThermoML archive (doi:10.1016/j.jct.2015.08.014).

Test: xn = mol fraction of the nth substance listed
Settings: 273.15 K, 100 kPa, Liquid; for electrical conductivity: Alternating current cell with electrodes; for viscosity: Capillary tube (Ostwald / Ubbelohde) method

CCCC[N+]1(C)CCCC1.N#CN=C=[N-] [1-butyl-1-methylpyrrolidinium dicyanamide] + O=C1CCCO1
Settings	electrical conductivity [S/m]	viscosity [mPa·s]
x1 = 0.0463	0.977	–
x1 = 0.0987	1.43	4.69
x1 = 0.1449	1.56	–
x1 = 0.1859	1.634	7.2
x1 = 0.2493	1.517	–
x1 = 0.3029	1.42	12.03
x1 = 0.3845	1.25	–
x1 = 0.4985	1.03	24.9
x1 = 0.6954	0.742	45.65
x1 = 0.9013	0.562	76.07
x1 = 1	0.523	93.95

Settings	electrical conductivity [S/m]
Frequency=0.0005 MHz, x1 = 0.0463	0.97
Frequency=0.0005 MHz, x1 = 0.0987	1.41
Frequency=0.0005 MHz, x1 = 0.1449	1.56
Frequency=0.0005 MHz, x1 = 0.1859	1.619
Frequency=0.0005 MHz, x1 = 0.2493	1.513
Frequency=0.0005 MHz, x1 = 0.3029	1.42
Frequency=0.0005 MHz, x1 = 0.3845	1.25
Frequency=0.0005 MHz, x1 = 0.4985	1.03
Frequency=0.0005 MHz, x1 = 0.6954	0.741
Frequency=0.0005 MHz, x1 = 0.9013	0.561
Frequency=0.0005 MHz, x1 = 1	0.522
Frequency=0.001 MHz, x1 = 0.0463	0.973
Frequency=0.001 MHz, x1 = 0.0987	1.42
Frequency=0.001 MHz, x1 = 0.1449	1.56
Frequency=0.001 MHz, x1 = 0.1859	1.625
Frequency=0.001 MHz, x1 = 0.2493	1.515
Frequency=0.001 MHz, x1 = 0.3029	1.42
Frequency=0.001 MHz, x1 = 0.3845	1.25
Frequency=0.001 MHz, x1 = 0.4985	1.03
Frequency=0.001 MHz, x1 = 0.6954	0.741
Frequency=0.001 MHz, x1 = 0.9013	0.561
Frequency=0.001 MHz, x1 = 1	0.522
Frequency=0.0015 MHz, x1 = 0.0463	0.975
Frequency=0.0015 MHz, x1 = 0.0987	1.42
Frequency=0.0015 MHz, x1 = 0.1449	1.56
Frequency=0.0015 MHz, x1 = 0.1859	1.627
Frequency=0.0015 MHz, x1 = 0.2493	1.515
Frequency=0.0015 MHz, x1 = 0.3029	1.42
Frequency=0.0015 MHz, x1 = 0.3845	1.25
Frequency=0.0015 MHz, x1 = 0.4985	1.03
Frequency=0.0015 MHz, x1 = 0.6954	0.741
Frequency=0.0015 MHz, x1 = 0.9013	0.562
Frequency=0.0015 MHz, x1 = 1	0.522
Frequency=0.002 MHz, x1 = 0.0463	0.975
Frequency=0.002 MHz, x1 = 0.0987	1.42
Frequency=0.002 MHz, x1 = 0.1449	1.56
Frequency=0.002 MHz, x1 = 0.1859	1.629
Frequency=0.002 MHz, x1 = 0.2493	1.516
Frequency=0.002 MHz, x1 = 0.3029	1.42
Frequency=0.002 MHz, x1 = 0.3845	1.25
Frequency=0.002 MHz, x1 = 0.4985	1.03
Frequency=0.002 MHz, x1 = 0.6954	0.742
Frequency=0.002 MHz, x1 = 0.9013	0.562
Frequency=0.002 MHz, x1 = 1	0.522
Frequency=0.0025 MHz, x1 = 0.0463	0.976
Frequency=0.0025 MHz, x1 = 0.0987	1.42
Frequency=0.0025 MHz, x1 = 0.1449	1.56
Frequency=0.0025 MHz, x1 = 0.1859	1.63
Frequency=0.0025 MHz, x1 = 0.2493	1.516
Frequency=0.0025 MHz, x1 = 0.3029	1.42
Frequency=0.0025 MHz, x1 = 0.3845	1.25
Frequency=0.0025 MHz, x1 = 0.4985	1.03
Frequency=0.0025 MHz, x1 = 0.6954	0.742
Frequency=0.0025 MHz, x1 = 0.9013	0.562
Frequency=0.0025 MHz, x1 = 1	0.522
Frequency=0.003 MHz, x1 = 0.0463	0.976
Frequency=0.003 MHz, x1 = 0.0987	1.42
Frequency=0.003 MHz, x1 = 0.1449	1.56
Frequency=0.003 MHz, x1 = 0.1859	1.631
Frequency=0.003 MHz, x1 = 0.2493	1.516
Frequency=0.003 MHz, x1 = 0.3029	1.42
Frequency=0.003 MHz, x1 = 0.3845	1.25
Frequency=0.003 MHz, x1 = 0.4985	1.03
Frequency=0.003 MHz, x1 = 0.6954	0.742
Frequency=0.003 MHz, x1 = 0.9013	0.562
Frequency=0.003 MHz, x1 = 1	0.522
Frequency=0.00347222 MHz, x1 = 0.0463	0.977
Frequency=0.00347222 MHz, x1 = 0.0987	1.42
Frequency=0.00347222 MHz, x1 = 0.1449	1.56
Frequency=0.00347222 MHz, x1 = 0.1859	1.632
Frequency=0.00347222 MHz, x1 = 0.2493	1.516
Frequency=0.00347222 MHz, x1 = 0.3029	1.42
Frequency=0.00347222 MHz, x1 = 0.3845	1.25
Frequency=0.00347222 MHz, x1 = 0.4985	1.03
Frequency=0.00347222 MHz, x1 = 0.6954	0.742
Frequency=0.00347222 MHz, x1 = 0.9013	0.562
Frequency=0.00347222 MHz, x1 = 1	0.523
Frequency=0.004 MHz, x1 = 0.0463	0.977
Frequency=0.004 MHz, x1 = 0.0987	1.42
Frequency=0.004 MHz, x1 = 0.1449	1.56
Frequency=0.004 MHz, x1 = 0.1859	1.632
Frequency=0.004 MHz, x1 = 0.2493	1.516
Frequency=0.004 MHz, x1 = 0.3029	1.42
Frequency=0.004 MHz, x1 = 0.3845	1.25
Frequency=0.004 MHz, x1 = 0.4985	1.03
Frequency=0.004 MHz, x1 = 0.6954	0.742
Frequency=0.004 MHz, x1 = 0.9013	0.562
Frequency=0.004 MHz, x1 = 1	0.523
Frequency=0.00446429 MHz, x1 = 0.0463	0.977
Frequency=0.00446429 MHz, x1 = 0.0987	1.42
Frequency=0.00446429 MHz, x1 = 0.1449	1.56
Frequency=0.00446429 MHz, x1 = 0.1859	1.633
Frequency=0.00446429 MHz, x1 = 0.2493	1.516
Frequency=0.00446429 MHz, x1 = 0.3029	1.42
Frequency=0.00446429 MHz, x1 = 0.3845	1.25
Frequency=0.00446429 MHz, x1 = 0.4985	1.03
Frequency=0.00446429 MHz, x1 = 0.6954	0.742
Frequency=0.00446429 MHz, x1 = 0.9013	0.562
Frequency=0.00446429 MHz, x1 = 1	0.523
Frequency=0.005 MHz, x1 = 0.0463	0.977
Frequency=0.005 MHz, x1 = 0.0987	1.42
Frequency=0.005 MHz, x1 = 0.1449	1.56
Frequency=0.005 MHz, x1 = 0.1859	1.633
Frequency=0.005 MHz, x1 = 0.2493	1.517
Frequency=0.005 MHz, x1 = 0.3029	1.42
Frequency=0.005 MHz, x1 = 0.3845	1.25
Frequency=0.005 MHz, x1 = 0.4985	1.03
Frequency=0.005 MHz, x1 = 0.6954	0.742
Frequency=0.005 MHz, x1 = 0.9013	0.562
Frequency=0.005 MHz, x1 = 1	0.523
Frequency=0.005454 MHz, x1 = 0.0463	0.977
Frequency=0.005454 MHz, x1 = 0.0987	1.43
Frequency=0.005454 MHz, x1 = 0.1449	1.56
Frequency=0.005454 MHz, x1 = 0.1859	1.634
Frequency=0.005454 MHz, x1 = 0.2493	1.517
Frequency=0.005454 MHz, x1 = 0.3029	1.42
Frequency=0.005454 MHz, x1 = 0.3845	1.25
Frequency=0.005454 MHz, x1 = 0.4985	1.03
Frequency=0.005454 MHz, x1 = 0.6954	0.742
Frequency=0.005454 MHz, x1 = 0.9013	0.562
Frequency=0.005454 MHz, x1 = 1	0.523
Frequency=0.006 MHz, x1 = 0.0463	0.977
Frequency=0.006 MHz, x1 = 0.0987	1.43
Frequency=0.006 MHz, x1 = 0.1449	1.56
Frequency=0.006 MHz, x1 = 0.1859	1.634
Frequency=0.006 MHz, x1 = 0.2493	1.517
Frequency=0.006 MHz, x1 = 0.3029	1.42
Frequency=0.006 MHz, x1 = 0.3845	1.25
Frequency=0.006 MHz, x1 = 0.4985	1.03
Frequency=0.006 MHz, x1 = 0.6954	0.742
Frequency=0.006 MHz, x1 = 0.9013	0.562
Frequency=0.006 MHz, x1 = 1	0.523
Frequency=0.00652174 MHz, x1 = 0.0463	0.978
Frequency=0.00652174 MHz, x1 = 0.0987	1.43
Frequency=0.00652174 MHz, x1 = 0.1449	1.56
Frequency=0.00652174 MHz, x1 = 0.1859	1.634
Frequency=0.00652174 MHz, x1 = 0.2493	1.517
Frequency=0.00652174 MHz, x1 = 0.3029	1.42
Frequency=0.00652174 MHz, x1 = 0.3845	1.25
Frequency=0.00652174 MHz, x1 = 0.4985	1.03
Frequency=0.00652174 MHz, x1 = 0.6954	0.742
Frequency=0.00652174 MHz, x1 = 0.9013	0.563
Frequency=0.00652174 MHz, x1 = 1	0.523
Frequency=0.00694444 MHz, x1 = 0.0463	0.978
Frequency=0.00694444 MHz, x1 = 0.0987	1.43
Frequency=0.00694444 MHz, x1 = 0.1449	1.56
Frequency=0.00694444 MHz, x1 = 0.1859	1.634
Frequency=0.00694444 MHz, x1 = 0.2493	1.517
Frequency=0.00694444 MHz, x1 = 0.3029	1.42
Frequency=0.00694444 MHz, x1 = 0.3845	1.25
Frequency=0.00694444 MHz, x1 = 0.4985	1.03
Frequency=0.00694444 MHz, x1 = 0.6954	0.742
Frequency=0.00694444 MHz, x1 = 0.9013	0.563
Frequency=0.00694444 MHz, x1 = 1	0.523
Frequency=0.0075 MHz, x1 = 0.0463	0.978
Frequency=0.0075 MHz, x1 = 0.0987	1.43
Frequency=0.0075 MHz, x1 = 0.1449	1.56
Frequency=0.0075 MHz, x1 = 0.1859	1.634
Frequency=0.0075 MHz, x1 = 0.2493	1.517
Frequency=0.0075 MHz, x1 = 0.3029	1.42
Frequency=0.0075 MHz, x1 = 0.3845	1.25
Frequency=0.0075 MHz, x1 = 0.4985	1.03
Frequency=0.0075 MHz, x1 = 0.6954	0.742
Frequency=0.0075 MHz, x1 = 0.9013	0.563
Frequency=0.0075 MHz, x1 = 1	0.523
Frequency=0.008 MHz, x1 = 0.0463	0.978
Frequency=0.008 MHz, x1 = 0.0987	1.43
Frequency=0.008 MHz, x1 = 0.1449	1.56
Frequency=0.008 MHz, x1 = 0.1859	1.635
Frequency=0.008 MHz, x1 = 0.2493	1.517
Frequency=0.008 MHz, x1 = 0.3029	1.42
Frequency=0.008 MHz, x1 = 0.3845	1.25
Frequency=0.008 MHz, x1 = 0.4985	1.03
Frequency=0.008 MHz, x1 = 0.6954	0.742
Frequency=0.008 MHz, x1 = 0.9013	0.563
Frequency=0.008 MHz, x1 = 1	0.523
Frequency=0.00857143 MHz, x1 = 0.0463	0.978
Frequency=0.00857143 MHz, x1 = 0.0987	1.43
Frequency=0.00857143 MHz, x1 = 0.1449	1.57
Frequency=0.00857143 MHz, x1 = 0.1859	1.635
Frequency=0.00857143 MHz, x1 = 0.2493	1.517
Frequency=0.00857143 MHz, x1 = 0.3029	1.42
Frequency=0.00857143 MHz, x1 = 0.3845	1.25
Frequency=0.00857143 MHz, x1 = 0.4985	1.03
Frequency=0.00857143 MHz, x1 = 0.6954	0.742
Frequency=0.00857143 MHz, x1 = 0.9013	0.563
Frequency=0.00857143 MHz, x1 = 1	0.523
Frequency=0.00892857 MHz, x1 = 0.0463	0.978
Frequency=0.00892857 MHz, x1 = 0.0987	1.43
Frequency=0.00892857 MHz, x1 = 0.1449	1.57
Frequency=0.00892857 MHz, x1 = 0.1859	1.635
Frequency=0.00892857 MHz, x1 = 0.2493	1.517
Frequency=0.00892857 MHz, x1 = 0.3029	1.42
Frequency=0.00892857 MHz, x1 = 0.3845	1.25
Frequency=0.00892857 MHz, x1 = 0.4985	1.03
Frequency=0.00892857 MHz, x1 = 0.6954	0.742
